Source: PubChem BioAssay (NCI)
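Each compound was tested at five concentrations against cells in 96-well plates for 48 hours. TGI: concentration producing complete growth inhibition.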

Key:
Assay in all cases: NCI tumour cell line growth inhibition, 48 h
HL-60(TB) leukemia = system: HL-60(TB) leukemia
MALME-3M melanoma = system: MALME-3M melanoma
UO-31 renal = system: UO-31 renal
A498 renal = system: A498 renal
OVCAR-8 ovarian = system: OVCAR-8 ovarian
KM12 colon = system: KM12 colon
DLD-1 colon = system: DLD-1 colon
NCI-H226 lung = system: NCI-H226 lung
U251 CNS = system: U251 CNS
COLO 205 colon = system: COLO 205 colon
K-562 leukemia = system: K-562 leukemia
OVCAR-3 ovarian = system: OVCAR-3 ovarian
HCT-15 colon = system: HCT-15 colon
M14 melanoma = system: M14 melanoma
SR leukemia = system: SR leukemia
LOX IMVI melanoma = system: LOX IMVI melanoma
RPMI-8226 leukemia = system: RPMI-8226 leukemia
DMS 273 small cell lung = system: DMS 273 small cell lung
NCI-H522 lung = system: NCI-H522 lung
LXFL 529 NSCLC = system: LXFL 529 NSCLC
SF-539 CNS = system: SF-539 CNS
MOLT-4 leukemia = system: MOLT-4 leukemia
SN12C renal = system: SN12C renal
SK-OV-3 ovarian = system: SK-OV-3 ovarian
UACC-62 melanoma = system: UACC-62 melanoma
HCT-116 colon = system: HCT-116 colon
SNB-19 CNS = system: SNB-19 CNS
SF-295 CNS = system: SF-295 CNS
KM20L2 colon = system: KM20L2 colon
NCI-H460 lung = system: NCI-H460 lung
RXF 393 renal = system: RXF 393 renal
SK-MEL-2 melanoma = system: SK-MEL-2 melanoma
786-0 renal = system: 786-0 renal
HOP-18 NSCLC = system: HOP-18 NSCLC
SK-MEL-5 melanoma = system: SK-MEL-5 melanoma
SNB-75 CNS = system: SNB-75 CNS
SF-268 CNS = system: SF-268 CNS
EKVX NSCLC = system: EKVX NSCLC
XF 498 CNS = system: XF 498 CNS
NCI-H23 lung = system: NCI-H23 lung
ACHN renal = system: ACHN renal
SW-620 colon = system: SW-620 colon
SNB-78 CNS = system: SNB-78 CNS
HOP-92 NSCLC = system: HOP-92 NSCLC
DMS 114 small cell lung = system: DMS 114 small cell lung
CCRF-CEM leukemia = system: CCRF-CEM leukemia
IGROV1 ovarian = system: IGROV1 ovarian
RXF-631 renal = system: RXF-631 renal
HOP-62 NSCLC = system: HOP-62 NSCLC
TK-10 renal = system: TK-10 renal
CAKI-1 renal = system: CAKI-1 renal
OVCAR-5 ovarian = system: OVCAR-5 ovarian
OVCAR-4 ovarian = system: OVCAR-4 ovarian
SK-MEL-28 melanoma = system: SK-MEL-28 melanoma
M19-MEL melanoma = system: M19-MEL melanoma
UACC-257 melanoma = system: UACC-257 melanoma
A549 NSCLC = system: A549 NSCLC
HT29 colon = system: HT29 colon
MDA-N = system: MDA-N
SN12K1 renal = system: SN12K1 renal
MDA-MB-435 = system: MDA-MB-435
DU-145 prostate = system: DU-145 prostate
MCF7 breast = system: MCF7 breast
HCC-2998 colon = system: HCC-2998 colon
T-47D breast = system: T-47D breast
P388/ADR leukemia = system: P388/ADR leukemia
BT-549 breast = system: BT-549 breast
NCI/ADR-RES ovarian = system: NCI/ADR-RES ovarian
PC-3 prostate = system: PC-3 prostate
P388 leukemia = system: P388 leukemia
MDA-MB-231 breast = system: MDA-MB-231 breast
HS 578T breast = system: HS 578T breast

CN1CCCS/C1=C1/SC(=S)N(c2ccccc2)C1=O
TGI (HL-60(TB) leukemia): > 100 µM
TGI (MALME-3M melanoma): > 100 µM
TGI (UO-31 renal): > 100 µM
TGI (A498 renal): > 100 µM
TGI (OVCAR-8 ovarian): > 100 µM
TGI (KM12 colon): > 100 µM
TGI (DLD-1 colon): > 100 µM
TGI (NCI-H226 lung): > 100 µM
TGI (U251 CNS): > 100 µM
TGI (COLO 205 colon): > 100 µM
TGI (K-562 leukemia): > 100 µM
TGI (OVCAR-3 ovarian): > 100 µM
TGI (HCT-15 colon): > 100 µM
TGI (M14 melanoma): > 100 µM
TGI (SR leukemia): > 100 µM
TGI (LOX IMVI melanoma): > 100 µM
TGI (RPMI-8226 leukemia): > 100 µM
TGI (DMS 273 small cell lung): > 100 µM
TGI (NCI-H522 lung): > 100 µM
TGI (LXFL 529 NSCLC): > 100 µM
TGI (SF-539 CNS): > 100 µM
TGI (MOLT-4 leukemia): > 100 µM
TGI (SN12C renal): > 100 µM
TGI (SK-OV-3 ovarian): > 100 µM
TGI (UACC-62 melanoma): > 100 µM
TGI (HCT-116 colon): > 100 µM
TGI (SNB-19 CNS): > 100 µM
TGI (SF-295 CNS): > 100 µM
TGI (KM20L2 colon): > 100 µM
TGI (NCI-H460 lung): > 100 µM
TGI (RXF 393 renal): > 100 µM
TGI (SK-MEL-2 melanoma): > 100 µM
TGI (786-0 renal): > 100 µM
TGI (HOP-18 NSCLC): > 100 µM
TGI (SK-MEL-5 melanoma): > 100 µM
TGI (SNB-75 CNS): > 100 µM
TGI (SF-268 CNS): > 100 µM
TGI (EKVX NSCLC): > 100 µM
TGI (XF 498 CNS): > 100 µM
TGI (NCI-H23 lung): > 100 µM
TGI (ACHN renal): > 100 µM
TGI (SW-620 colon): > 100 µM
TGI (SNB-78 CNS): > 100 µM
TGI (HOP-92 NSCLC): > 100 µM
TGI (DMS 114 small cell lung): > 100 µM
TGI (CCRF-CEM leukemia): > 100 µM
TGI (IGROV1 ovarian): > 100 µM
TGI (RXF-631 renal): > 100 µM
TGI (HOP-62 NSCLC): > 100 µM
TGI (TK-10 renal): > 100 µM
TGI (CAKI-1 renal): > 100 µM
TGI (OVCAR-5 ovarian): > 100 µM
TGI (OVCAR-4 ovarian): > 100 µM
TGI (SK-MEL-28 melanoma): > 100 µM
TGI (M19-MEL melanoma): > 100 µM
TGI (UACC-257 melanoma): > 100 µM
TGI (A549 NSCLC): > 100 µM
TGI (HT29 colon): > 100 µM

CC(=O)OC1C(O)C(C)OC(OC2C(OC(=O)C3CCC4C(C3)OC3(CC(OC(=O)/C=C/c5ccccc5)C(C)CO3)C43CO3)OC(C)C(O)C2OC(C)=O)C1O (stereo not drawn)
TGI (HL-60(TB) leukemia): 0.0192 µM
TGI (MALME-3M melanoma): < 0.0185 µM
TGI (UO-31 renal): 1.6 µM
TGI (A498 renal): 0.188 µM
TGI (OVCAR-8 ovarian): 0.198 µM
TGI (KM12 colon): 0.0562 µM
TGI (DLD-1 colon): > 1.5 µM
TGI (NCI-H226 lung): 0.0522 µM
TGI (U251 CNS): 0.0493 µM
TGI (COLO 205 colon): 0.0181 µM
TGI (K-562 leukemia): 0.241 µM
TGI (OVCAR-3 ovarian): 0.0451 µM
TGI (MDA-N): 0.0182 µM
TGI (HCT-15 colon): 1.82 µM
TGI (SN12K1 renal): 0.0583 µM
TGI (M14 melanoma): 0.0293 µM
TGI (SR leukemia): > 2.5 µM
TGI (LOX IMVI melanoma): 0.0213 µM
TGI (RPMI-8226 leukemia): 0.0945 µM
TGI (DMS 273 small cell lung): 0.111 µM
TGI (NCI-H522 lung): 0.0156 µM
TGI (MDA-MB-435): 0.00649 µM
TGI (DU-145 prostate): 0.0714 µM
TGI (SF-539 CNS): 0.0285 µM
TGI (MOLT-4 leukemia): 0.032 µM
TGI (SN12C renal): 0.125 µM
TGI (SK-OV-3 ovarian): 0.0928 µM
TGI (UACC-62 melanoma): 0.0382 µM
TGI (MCF7 breast): 0.0825 µM
TGI (HCT-116 colon): 0.0785 µM
TGI (HCC-2998 colon): 0.0148 µM
TGI (SNB-19 CNS): 0.0316 µM
TGI (SF-295 CNS): 0.145 µM
TGI (KM20L2 colon): 0.21 µM
TGI (NCI-H460 lung): 0.141 µM
TGI (T-47D breast): 0.0441 µM
TGI (RXF 393 renal): 0.121 µM
TGI (P388/ADR leukemia): > 2.5 µM
TGI (SK-MEL-2 melanoma): 0.0189 µM
TGI (786-0 renal): 0.132 µM
TGI (HOP-18 NSCLC): 0.413 µM
TGI (SK-MEL-5 melanoma): 0.0155 µM
TGI (SNB-75 CNS): 0.0317 µM
TGI (SF-268 CNS): 0.0499 µM
TGI (BT-549 breast): 0.0147 µM
TGI (EKVX NSCLC): 0.074 µM
TGI (XF 498 CNS): 0.0896 µM
TGI (NCI-H23 lung): 0.0615 µM
TGI (ACHN renal): 0.648 µM
TGI (SW-620 colon): 0.184 µM
TGI (HOP-92 NSCLC): 0.0344 µM
TGI (DMS 114 small cell lung): 0.0727 µM
TGI (CCRF-CEM leukemia): 0.084 µM
TGI (NCI/ADR-RES ovarian): > 2.5 µM
TGI (IGROV1 ovarian): 0.0922 µM
TGI (PC-3 prostate): 0.0442 µM
TGI (HOP-62 NSCLC): 0.0519 µM
TGI (TK-10 renal): 0.225 µM
TGI (CAKI-1 renal): 1.21 µM
TGI (OVCAR-5 ovarian): 0.144 µM
TGI (OVCAR-4 ovarian): 0.051 µM
TGI (P388 leukemia): 0.279 µM
TGI (SK-MEL-28 melanoma): 0.0305 µM
TGI (M19-MEL melanoma): 0.0665 µM
TGI (MDA-MB-231 breast): 0.101 µM
TGI (UACC-257 melanoma): 0.0811 µM
TGI (A549 NSCLC): 0.333 µM
TGI (HT29 colon): 0.0473 µM
TGI (HS 578T breast): 0.00669 µM

O=P1(Oc2ccc(Cl)cc2Cl)Oc2cc3ccccc3cc2O1
TGI (HL-60(TB) leukemia): 50.8 µM
TGI (MALME-3M melanoma): > 100 µM
TGI (UO-31 renal): > 100 µM
TGI (A498 renal): > 90.5 µM
TGI (OVCAR-8 ovarian): > 100 µM
TGI (KM12 colon): > 100 µM
TGI (DLD-1 colon): > 100 µM
TGI (NCI-H226 lung): > 100 µM
TGI (U251 CNS): > 100 µM
TGI (COLO 205 colon): > 100 µM
TGI (K-562 leukemia): > 100 µM
TGI (OVCAR-3 ovarian): > 60.7 µM
TGI (HCT-15 colon): > 100 µM
TGI (SN12K1 renal): > 100 µM
TGI (LOX IMVI melanoma): > 100 µM
TGI (RPMI-8226 leukemia): > 60.1 µM
TGI (DMS 273 small cell lung): > 100 µM
TGI (NCI-H522 lung): 82.6 µM
TGI (SF-539 CNS): > 100 µM
TGI (MOLT-4 leukemia): > 71.4 µM
TGI (SN12C renal): > 100 µM
TGI (SK-OV-3 ovarian): > 100 µM
TGI (UACC-62 melanoma): > 100 µM
TGI (MCF7 breast): > 74.4 µM
TGI (HCT-116 colon): > 100 µM
TGI (HCC-2998 colon): 59.6 µM
TGI (SNB-19 CNS): > 100 µM
TGI (SF-295 CNS): > 100 µM
TGI (KM20L2 colon): > 100 µM
TGI (NCI-H460 lung): > 100 µM
TGI (RXF 393 renal): > 100 µM
TGI (P388/ADR leukemia): 64.1 µM
TGI (SK-MEL-2 melanoma): > 100 µM
TGI (HOP-18 NSCLC): > 100 µM
TGI (SK-MEL-5 melanoma): > 100 µM
TGI (SNB-75 CNS): > 100 µM
TGI (SF-268 CNS): > 100 µM
TGI (EKVX NSCLC): > 100 µM
TGI (XF 498 CNS): > 100 µM
TGI (NCI-H23 lung): > 100 µM
TGI (SW-620 colon): > 100 µM
TGI (SNB-78 CNS): > 100 µM
TGI (HOP-92 NSCLC): > 100 µM
TGI (DMS 114 small cell lung): > 89.3 µM
TGI (CCRF-CEM leukemia): > 100 µM
TGI (NCI/ADR-RES ovarian): > 100 µM
TGI (IGROV1 ovarian): > 100 µM
TGI (HOP-62 NSCLC): > 100 µM
TGI (CAKI-1 renal): > 100 µM
TGI (OVCAR-5 ovarian): > 100 µM
TGI (OVCAR-4 ovarian): > 100 µM
TGI (P388 leukemia): 32.6 µM
TGI (SK-MEL-28 melanoma): > 100 µM
TGI (UACC-257 melanoma): > 100 µM
TGI (A549 NSCLC): > 100 µM
TGI (HT29 colon): > 100 µM
